We go through 22 compounds from patent publication US20230295157A1, “3-(1H-IMIDAZOL-2-YL)-2,3,8,8A-TETRAHYDROINDOLIZIN-5(1H)-ONE DERIVATIVES USEFUL AS FACTOR XIA INHIBITORS” (JANSSEN PHARMACEUTICA NV, priority 2020, published 2023).

Read-outs that look alike come from different tables or passages of the source.

One assay deals with Factor XIa (Homo sapiens (Human), UniProt P03951). The assay can be described thus: Factor XIa inhibition assay (FLINT) utilizing a fluorophore-quencher pair peptide substrate. The note with it: 30 min preincubation, kinetic reads over 30 min, read-out: FXIa Kin Inh IC50. In kind it is biochemical. The method, boiled down:
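FXIa ([…]) preincubated 30 min with compound (11-point 3-fold dilution, top 100 nM, 2% DMSO), then 15 μM quenched FXI Arg146-based peptide added; Tris pH 7.5, CaCl2, BSA, CHAPS. Fluorescence 485/520 nm read kinetically every 5 min over 30 min at RT; IC50 by 4-parameter fit.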

A further assay addresses human plasma kallikrein (Homo sapiens (Human), UniProt P03952). The assay can be described thus: Kallikrein inhibition assay (FLINT) utilizing a quenched AMC peptide substrate. In kind it is biochemical. The note with it: 30 min preincubation, read-out: Kallikrein Kin Inh IC50. A digest of the protocol: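 Enzyme (2 nM final) pre-incubated 30 min at room temperature with compound (11-point, 3-fold, top 1 μM, 2% DMSO), then 50 μM Z-Gly-Pro-Arg-AMC added in Tris pH 7.5 buffer. Kinetic fluorescence 340/440 nm every 5 min over 30 min; IC50 from 4-parameter logistic fit.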

[1] abbreviates: 5Fam-[…]-K5Tamra substrate 15 μM.
Where [2] appears, read: 5Fam-KLTRAETV-K5Tamra substrate 15 μM.
Setting [3] is: kinetic reads over 30 min, Z-Gly-Pro-Arg-AMC substrate 50 μM.

Sequence of Factor XIa (P03951 388-625): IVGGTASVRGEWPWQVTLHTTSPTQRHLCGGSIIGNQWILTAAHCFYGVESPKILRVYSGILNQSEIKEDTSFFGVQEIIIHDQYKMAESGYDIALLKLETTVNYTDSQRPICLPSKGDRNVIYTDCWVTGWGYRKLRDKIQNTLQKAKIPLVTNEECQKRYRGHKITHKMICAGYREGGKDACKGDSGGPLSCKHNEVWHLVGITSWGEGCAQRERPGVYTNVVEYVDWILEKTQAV
Sequence of Factor XIa (P03951 19-387 partner): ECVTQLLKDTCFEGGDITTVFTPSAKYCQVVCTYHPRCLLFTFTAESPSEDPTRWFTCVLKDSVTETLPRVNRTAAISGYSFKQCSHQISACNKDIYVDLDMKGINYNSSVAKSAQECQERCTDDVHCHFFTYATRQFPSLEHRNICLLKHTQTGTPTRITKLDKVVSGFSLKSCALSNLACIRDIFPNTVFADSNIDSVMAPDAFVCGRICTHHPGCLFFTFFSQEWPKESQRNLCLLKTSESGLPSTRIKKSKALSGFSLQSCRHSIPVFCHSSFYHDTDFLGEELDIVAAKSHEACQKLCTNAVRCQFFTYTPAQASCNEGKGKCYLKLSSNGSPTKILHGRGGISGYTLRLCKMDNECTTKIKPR
Sequence of human plasma kallikrein (P03952 391-638): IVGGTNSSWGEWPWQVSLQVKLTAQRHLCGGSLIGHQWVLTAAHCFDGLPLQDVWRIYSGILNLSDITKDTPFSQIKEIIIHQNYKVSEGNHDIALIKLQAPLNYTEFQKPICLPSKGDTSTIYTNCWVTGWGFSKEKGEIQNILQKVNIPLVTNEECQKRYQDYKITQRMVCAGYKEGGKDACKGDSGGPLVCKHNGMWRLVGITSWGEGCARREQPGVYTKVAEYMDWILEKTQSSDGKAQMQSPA
Sequence of human plasma kallikrein (P03952 20-390 partner): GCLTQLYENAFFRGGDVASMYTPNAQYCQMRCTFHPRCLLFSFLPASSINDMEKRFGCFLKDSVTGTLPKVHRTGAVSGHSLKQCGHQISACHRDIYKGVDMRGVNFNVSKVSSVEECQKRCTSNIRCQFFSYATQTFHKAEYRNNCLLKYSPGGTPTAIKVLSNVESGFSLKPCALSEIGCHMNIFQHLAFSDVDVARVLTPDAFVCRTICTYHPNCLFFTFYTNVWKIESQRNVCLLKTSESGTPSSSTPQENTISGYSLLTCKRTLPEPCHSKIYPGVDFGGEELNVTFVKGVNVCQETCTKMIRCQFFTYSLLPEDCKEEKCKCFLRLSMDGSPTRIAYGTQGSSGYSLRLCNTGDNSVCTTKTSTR

On to `C[C@H]1C[C@@H](c2ncc(-c3ccc(N)nc3F)[nH]2)N2C(=O)C=C(c3c(-n4cnnn4)ccc(Cl)c3F)C[C@H]12` (relative stereo) [Example 344, (1*S,3S,8a*R)-3-(5-(6-Amino-2-fluoropyridin-3-yl)-1H-imidazol-2-yl)-7-(3-chloro-2-fluoro-6-(1H-tetrazol-1-yl)phenyl)-1-methyl-2,3,8,8a-tetrahydroindolizin-5(1H)-one], for which the IC50 (commonly the concentration that inhibits the measured activity by half) came out at 202 nM at Factor XIa (setting [1]) and 1.3 µM on human plasma kallikrein (μM, kinetic reads).

As for `O=C1C=C(c2c(-n3cnnn3)ccc(Cl)c2F)CC2CC[C@@H](c3nc(-c4ccnc(OCCO)c4)c[nH]3)N12` (single isomer, unassigned) [Example 9], the IC50 at Factor XIa (setting [2]) was determined as 2.1 nM; on human plasma kallikrein (setting [3]), 0.0085 µM.

Take `O=C1C=C(c2c(-n3cnnn3)ccc(Cl)c2F)C[C@H]2CC[C@@H](c3ncc(-c4c[nH]c5cnccc45)[nH]3)N12` (single isomer, unassigned) [Example 19]: the IC50 was found to be 2.4 nM on Factor XIa (setting [2]) and 0.0074 µM on human plasma kallikrein (setting [3]).

With `CC(O)COc1nccc(-c2cnc([C@@H]3CC[C@@H]4CC(c5c(-n6cnnn6)ccc(Cl)c5F)=CC(=O)N43)[nH]2)c1F` (single isomer, unassigned) [Example 28], the IC50 was 1.3 nM at Factor XIa (setting [2]) and 0.0094 µM at human plasma kallikrein (setting [3]).

Take `CC(O)COc1nccc(-c2cnc([C@@H]3CC[C@H]4CC(c5c(-n6cnnn6)ccc(Cl)c5F)=CC(=O)N43)[nH]2)c1F` (single isomer, unassigned) [Example 29]: the concentration for half-maximal inhibition (IC50) turned out to be 57.9 nM at Factor XIa (setting [2]) and 0.307 µM at human plasma kallikrein (setting [3]).

As for `O=C1C=C(c2c(-n3cnnn3)ccc(Cl)c2F)C[C@H]2CC[C@@H](c3nc(F)c(-c4ccnc(-c5ccn[nH]5)c4)[nH]3)N12` (single isomer, unassigned) [Example 31], the 50% inhibitory concentration (IC50) is 0.7 nM on Factor XIa (setting [2]) and 0.0018 µM at human plasma kallikrein (setting [3]).

Consider `Cc1nc([C@@H]2CC[C@@H]3CC(c4c(-n5cnnn5)ccc(Cl)c4F)=CC(=O)N32)[nH]c1-c1ccnc(CO)c1F` (single isomer, unassigned) [Example 35], for which the IC50 worked out at 60.1 nM at Factor XIa (setting [1]) and 0.245 µM at human plasma kallikrein (setting [3]).

As for `[2H]C([2H])(O)c1nccc(-c2cnc([C@@H]3CC[C@]4([2H])CC(c5c(-n6cnnn6)ccc(Cl)c5F)=CC(=O)N34)[nH]2)c1F` (single isomer, unassigned) [Example 36], the 50% inhibitory concentration (IC50) on Factor XIa (setting [2]) came to 5.1 nM; on human plasma kallikrein (setting [3]) it was 0.0337 µM.

Regarding `Nc1ccnn1-c1cc(-c2cnc([C@H]3CC[C@@H]4CC(c5c(-n6cnnn6)ccc(Cl)c5F)=CC(=O)N43)[nH]2)ccn1` (single isomer, unassigned) [Example 49, (3R*,8aR)-3-(5-(2-(5-amino-1H-pyrazol-1-yl)pyridin-4-yl)-1H-imidazol-2-yl)-7-(3-chloro-2-fluoro-6-(1H-tetrazol-1-yl)phenyl)-2,3,8,8a-tetrahydroindolizin-5(1H)-one], the figures for the IC50 at Factor XIa (setting [1]) and on human plasma kallikrein (setting [3]) were 31.3 nM and 0.0114 µM, respectively.

Consider `O=C(O)c1nccc(-c2cnc([C@@H]3CC[C@@H]4CC(c5cc(Cl)ccc5-n5cc(C(F)(F)F)nn5)=CC(=O)N43)[nH]2)c1F` (single isomer, unassigned) [Example 54, 4-(2-((3S*,8aR)-7-(5-chloro-2-(4-(trifluoromethyl)-1H-1,2,3-triazol-1-yl)phenyl)-5-oxo-1,2,3,5,8,8a-hexahydroindolizin-3-yl)-1H-imidazol-5-yl)-3-fluoropicolinic acid], for which the IC50 on Factor XIa (setting [1]) was 0.8 nM; at human plasma kallikrein (setting [3]), 0.0679 µM.

As for `Nc1ccn(-c2nccc(-c3cnc([C@H]4CC[C@@H]5CC(c6c(-n7cnnn7)ccc(Cl)c6F)=CC(=O)N54)[nH]3)c2F)n1` (single isomer, unassigned) [Example 63], the figures for the IC50 at Factor XIa (setting [1]) and at human plasma kallikrein (setting [3]) were 6.9 nM and 0.0062 µM, respectively.

As to `O=C1C=C(c2c(-n3cnnn3)ccc(Cl)c2F)CC2CCC(c3nc(-c4cccc(-c5ccn[nH]5)n4)c(F)[nH]3)N12` (single isomer, unassigned) [Example 66, (3S*)-3-(4-(6-(1H-pyrazol-5-yl)pyridin-2-yl)-5-fluoro-1H-imidazol-2-yl)-7-(3-chloro-2-fluoro-6-(1H-tetrazol-1-yl)phenyl)-2,3,8,8a-tetrahydroindolizin-5(1H)-one], the IC50 on Factor XIa (setting [1]) is 55 nM; on human plasma kallikrein (setting [3]), 0.0259 µM.

Consider `Nc1nccc(-c2[nH]c([C@@H]3CC[C@@H]4CC(c5cc(Cl)ccc5-n5cnnn5)=CC(=O)N43)nc2F)c1F` (single isomer, unassigned) [Example 70, (3S*,8aR)-3-(5-(2-amino-3-fluoropyridin-4-yl)-4-fluoro-1H-imidazol-2-yl)-7-(5-chloro-2-(1H-tetrazol-1-yl)phenyl)-2,3,8,8a-tetrahydroindolizin-5(1H)-one], for which the IC50 at Factor XIa (setting [1]) was determined as 0.3 nM; on human plasma kallikrein (setting [3]), 0.0026 µM.

In the case of `O=C1C=C(c2c(-n3cnnn3)ccc(Cl)c2F)C[C@H]2CC[C@H](c3ncc(-c4ccnc(-n5ccnn5)c4F)[nH]3)N12` (single isomer, unassigned) [Example 71, (3R*,8aR)-7-(3-chloro-2-fluoro-6-(1H-tetrazol-1-yl)phenyl)-3-(5-(3-fluoro-2-(1H-1,2,3-triazol-1-yl)pyridin-4-yl)-1H-imidazol-2-yl)-2,3,8,8a-tetrahydroindolizin-5(1H)-one], the figures for the IC50 on Factor XIa (setting [1]) and on human plasma kallikrein (setting [3]) were 13.8 nM and 0.0194 µM, respectively.

In the case of `Nc1ccn(-c2cc(-c3cnc([C@H]4CC[C@@H]5CC(c6c(-n7cnnn7)ccc(Cl)c6F)=CC(=O)N54)[nH]3)ccn2)n1` (single isomer, unassigned) [Example 72, (3R*,8aR)-3-(5-(2-(3-amino-1H-pyrazol-1-yl)pyridin-4-yl)-1H-imidazol-2-yl)-7-(3-chloro-2-fluoro-6-(1H-tetrazol-1-yl)phenyl)-2,3,8,8a-tetrahydroindolizin-5(1H)-one], the figures for the IC50 at Factor XIa (setting [1]) and on human plasma kallikrein (setting [3]) were 6.5 nM and 0.0023 µM, respectively.

For the compound `O=C1C=C(c2c(-n3cnnn3)ccc(Cl)c2F)C[C@H]2CC[C@@H](c3ncc(-c4ccnc(N[C@H]5CCOC5)c4F)[nH]3)N12` (single isomer, unassigned) [Example 73, (3S,8aR*)-7-(3-chloro-2-fluoro-6-(1H-tetrazol-1-yl)phenyl)-3-(5-(3-fluoro-2-(((S)-tetrahydrofuran-3-yl)amino)pyridin-4-yl)-1H-imidazol-2-yl)-2,3,8,8a-tetrahydroindolizin-5(1H)-one], the IC50 at Factor XIa (setting [1]) amounted to 0.6 nM; at human plasma kallikrein (setting [3]), 0.0027 µM.

`O=C1C=C(c2c(-n3cnnn3)ccc(Cl)c2F)C[C@@H]2CC[C@@H](c3ncc(-c4ccnc(N[C@H]5CCOC5)c4F)[nH]3)N12` (single isomer, unassigned) [Example 74, (3S,8aS*)-7-(3-chloro-2-fluoro-6-(1H-tetrazol-1-yl)phenyl)-3-(5-(3-fluoro-2-(((S)-tetrahydrofuran-3-yl)amino)pyridin-4-yl)-1H-imidazol-2-yl)-2,3,8,8a-tetrahydroindolizin-5(1H)-one]: the IC50 turned out to be 2.6 nM at Factor XIa (setting [1]) and 0.0049 µM on human plasma kallikrein (setting [3]).

Consider `Nc1nccc(-c2cnc([C@@H]3CC[C@@H]4CC(c5cc(Cl)ccc5-n5cnnn5)=CC(=O)N43)[nH]2)c1F` (single isomer, unassigned) [Example 90, (3S*,8aR)-3-(5-(2-amino-3-fluoropyridin-4-yl)-1H-imidazol-2-yl)-7-(5-chloro-2-(1H-tetrazol-1-yl)phenyl)-2,3,8,8a-tetrahydroindolizin-5(1H)-one], for which the results for the IC50 on Factor XIa (setting [1]) and at human plasma kallikrein (setting [3]) were 0.5 nM and 0.0055 µM, respectively.

With `O=C1C=C(c2c(-n3cnnn3)ccc(Cl)c2F)C[C@H]2CC[C@H](c3nc(F)c(-c4ccnc(-n5cncn5)c4F)[nH]3)N12` (single isomer, unassigned) [Example 92, 7-[3-Chloro-2-fluoro-6-(tetrazol-1-yl)phenyl]-3-[4-fluoro-5-[3-fluoro-2-(1,2,4-triazol-1-yl)-4-pyridyl]-1H-imidazol-2-yl]-2,3,8,8a-tetrahydro-1H-indolizin-5-one], the figures for the IC50 at Factor XIa (setting [2]) and at human plasma kallikrein (setting [3]) were 3.7 nM and 0.006 µM, respectively.

As to `CNc1ccc(-c2cnc([C@@H]3CC[C@@H]4CC(c5cc(Cl)ccc5-n5cnnn5)=CC(=O)N43)[nH]2)c(F)n1` (single isomer, unassigned) [Example 98, (3S*,8aR)-7-(5-chloro-2-(1H-tetrazol-1-yl)phenyl)-3-(5-(2-fluoro-6-(methylamino)pyridin-3-yl)-1H-imidazol-2-yl)-2,3,8,8a-tetrahydroindolizin-5(1H)-one], the IC50 was 0.6 nM at Factor XIa (setting [1]) and 0.009 µM on human plasma kallikrein (setting [3]).

`N#CC1CN(c2nccc(-c3cnc([C@@H]4CC[C@@H]5CC(c6c(-n7cnnn7)ccc(Cl)c6F)=CC(=O)N54)[nH]3)c2F)C1` (single isomer, unassigned) [Example 100, 1-(4-(2-((3S*,8aR)-7-(3-chloro-2-fluoro-6-(1H-tetrazol-1-yl)phenyl)-5-oxo-1,2,3,5,8,8a-hexahydroindolizin-3-yl)-1H-imidazol-5-yl)-3-fluoropyridin-2-yl)azetidine-3-carbonitrile]: the IC50 amounted to 1.9 nM at Factor XIa (setting [1]) and 0.0051 µM at human plasma kallikrein (setting [3]).

Regarding `N#CC1CN(c2nccc(-c3cnc([C@H]4CC[C@@H]5CC(c6c(-n7cnnn7)ccc(Cl)c6F)=CC(=O)N54)[nH]3)c2F)C1` (single isomer, unassigned) [Example 102, 1-(4-(24(3R*,8aR)-7-(3-chloro-2-fluoro-6-(1H-tetrazol-1-yl)phenyl)-5-oxo-1,2,3,5,8,8a-hexahydroindolizin-3-yl)-1H-imidazol-5-yl)-3-fluoropyridin-2-yl)azetidine-3-carbonitrile], the IC50 at Factor XIa (setting [1]) was 10.3 nM; at human plasma kallikrein (setting [3]), 0.0096 µM.
